Experimental data: paper PMC5663708, “Novel Benzylidene Thiazolidinedione Derivatives as Partial PPARγ Agonists and their Antidiabetic Effects on Type 2 Diabetes” (Scientific Reports, 2017)
Where two headings read alike, the source gives them in different places.

Tests used:
human PPARγ (hPPARγ) = biological target: T1, human PPARγ (hPPARγ) (Homo sapiens, UniProt P37231); assay: GAL-4 PPAR chimeric receptor transactivation assay in transiently transfected HepG2 cells; assay type: cell-based; conditions: for EC50: Gal4-hPPARγ-LBD, HepG2 cells, concentration-response curve; for Emax: maximum induction of Rosiglitazone defined as 100%; for agonist activity on hPPARα, hPPARγ, hPPARβ/δ subtypes: tested at 5 μM and 25 μM, compared with reference agonists
T1 construct: expressed in transfected cells; host or cells: HepG2 (human hepatoblastoma), transient calcium phosphate transfection
T1 sequence (P37231 238-503 limits assumed): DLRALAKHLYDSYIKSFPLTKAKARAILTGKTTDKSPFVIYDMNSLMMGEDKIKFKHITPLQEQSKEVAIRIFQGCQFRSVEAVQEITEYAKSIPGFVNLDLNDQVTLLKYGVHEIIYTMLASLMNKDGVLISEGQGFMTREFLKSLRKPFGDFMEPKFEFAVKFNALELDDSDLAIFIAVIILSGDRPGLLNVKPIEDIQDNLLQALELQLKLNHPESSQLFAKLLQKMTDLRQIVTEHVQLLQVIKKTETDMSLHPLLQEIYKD

[1] = Human liver microsomal stability; assay type: in vitro ADME; conditions: 37.5 °C, LM conc 0.4 mg/mL; for half-life: read-out: T1/2,int
Protocol: The oral bioavailability of compounds in terms of Caco-2 and MDCK-II permeability and the P-glycoprotein (P-gp) efflux ratio were assessed. The in vitro intrinsic half-life (T1/2,int) and the apparent intrinsic clearance (CLint,app) of compounds were also measured after incubation with human liver microsomes at 37.5 °C[65]. […] Quantification was done by LC-MS/MS. P-gp substrate activity was assessed by the efflux ratio (the ratio of Papp in the B-to-A direction over that in the A-to-B direction). […] P-gp is an ATP-dependent transporter on the apical plasma membrane of enterocytes that functions to limit the entry of drugs into the cell.
Highly cleared compounds in vitro are likely to be rapidly cleared in vivo resulting in a short duration of action.

PPARγ = biological target: T2, PPARγ (Homo sapiens, UniProt P37231); assay: SPR-based Biacore binding assay on immobilized PPARγ; conditions: injected 0.5 to 10 µM
T2 sequence (P37231 1-505): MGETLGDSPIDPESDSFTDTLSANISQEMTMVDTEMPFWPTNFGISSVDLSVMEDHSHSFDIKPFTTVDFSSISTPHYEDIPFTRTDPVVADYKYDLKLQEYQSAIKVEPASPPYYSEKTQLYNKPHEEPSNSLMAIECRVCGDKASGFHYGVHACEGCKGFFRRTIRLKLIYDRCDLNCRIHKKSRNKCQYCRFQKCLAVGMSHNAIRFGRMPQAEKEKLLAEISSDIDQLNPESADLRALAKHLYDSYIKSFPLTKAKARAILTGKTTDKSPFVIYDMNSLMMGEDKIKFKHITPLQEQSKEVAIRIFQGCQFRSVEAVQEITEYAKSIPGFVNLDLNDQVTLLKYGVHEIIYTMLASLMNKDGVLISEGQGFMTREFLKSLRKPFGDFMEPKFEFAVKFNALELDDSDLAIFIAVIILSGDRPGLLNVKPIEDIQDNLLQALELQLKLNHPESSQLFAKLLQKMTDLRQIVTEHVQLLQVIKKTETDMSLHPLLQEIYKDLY
Protocol: […]. SPR analyses were carried out on a BIACORE 3000 instrument (GE-Healthcare). A PPARγ, surface was generated using a research-grade CM5 sensor chips (GE Healthcare). The protein (100 µg/ml in 10 mM CH3COONa, pH 5.0) was immobilized using a standard amine-coupling protocol, to obtain densities of 4 kRU. Testing compounds were dissolved in 100% DMSO to obtain 10 mM solutions, and then diluted in PBS containing variable amounts of DMSO, achieving a final DMSO concentration of 0.1%. For each molecule a five-point concentration series (0.5 µM, 1 µM, 2,5 µM, 5 µM and 10 µM) was set up. SPR experiments and data elaboration were carried out as reported elsewhere.

[2] = system: NIH/3T3 mouse embryonic fibroblast cells; assay: XTT cytotoxicity assay on NIH/3T3 cells; conditions: for cell viability compared with Rosiglitazone: especially at 316 and 1000 μM
Protocol: XTT is reduced to soluble formazan by this enzyme and formazan is quantified and directly proportional to the number of viable cells. […] NIH/3T3 cells were seeded at 1 × 10^4 cells into each well of 96-well plates. […] The XTT assay (Xenometrix, Allschwil, Switzerland) was performed according to the manufacturer’s instructions, after 24 h incubation with the compounds. The absorbance was determined after 2 h incubation at 480 nm with a reference wavelength of 680 nm using a microplate reader (BioTek, USA). […] The stock solutions of the compounds were prepared in DMSO and further dilutions were made with fresh culture medium. The final DMSO concentration was under 0.1%. Rosiglitazone and Pioglitazone were used as positive controls. All data were obtained from 3 independent experiments in quadruplicates.

Row | Compound | EC50 (human PPARγ (hPPARγ)) [µM] | Emax (human PPARγ (hPPARγ); HepG2, read-out: Emax) [%] | agonist activity on hPPARα, hPPARγ, hPPARβ/δ subtypes (human PPARγ (hPPARγ)) | half-life ([1]; human liver microsomes) [min] | Kd (PPARγ) [µM] | IC50 ([2]; Mus musculus, NIH3T3, 24 h) [µM] | cell viability compared with Rosiglitazone ([2]; NIH/3T3 cells) | microsomal CLint ([1]; human, liver microsomes, read-out: CLint,app) [µL/min/mg] | Emax (human PPARγ (hPPARγ)) [%] | CLint,app ([1]; human liver microsomes) [µL/min/mg] | T1/2,int ([1]; human liver microsomes) [min] | IC50 ([2]; NIH/3T3 cells, XTT, 24 h incubation) [µM]
1 | CCN(CC)C(=O)CN1C(=O)S/C(=C\c2ccccc2)C1=O [1i] | 9.6 ± 0.8 | 23 ± 5 | weak to moderate selective activity towards PPARγ | 92.5 | 35.7 ± 2.6 | > 1000 | significantly higher viability than Rosiglitazone |  |  |  |  | 
2 | CCCCNC(=O)CN1C(=O)S/C(=C\c2ccc(Cl)cc2)C1=O [3a] | 5.9 ± 0.6 | 31.6 ± 1 | selective activity towards PPARγ | 53.3 | 32 ± 1.5 | 966 ± 10 | significantly higher viability than Rosiglitazone | 32.5 |  |  |  | 
3 | CCCCNC(=O)CN1C(=O)S/C(=C\c2ccccc2)C1=O [1a] | 7 ± 1.3 |  | weak to moderate selective activity towards PPARγ |  | 38.3 ± 1.8 |  |  |  | 5.3 ± 0.3 | 169.81 | 10.20 | > 1000
